In patent US5036097A, “Phenylbutyl nitrone compositions and methods for prevention of gastric ulceration” (Oklahoma Medical Research Foundation, priority 1990, dated 1991):
“Also recorded” adds a separate entry of the source.

Assays:
[1] = test system: mitochondrial respiration; experiment: mitochondrial respiration (liver mitochondria); assay type: biochemical, rat
Method: Studies of Mitochondrial Respiration.
Rat liver mitochondria are prepared using the method of Lai and Clark Methods Enzymol 55:51-60 (1979). The livers are excised rapidly into ice cold isolation medium containing 0.25M sucrose, 10 mM tris(hydroxymethyl)aminomethane (Tris), 0.25% bovine serum albumin (fatty acid free), and 0.5 mM potassium EDTA, pH 7.4. The tissue is minced and rinsed three times in cold isolation medium. The minced tissue is placed in a Dounce homogenizer with 20 ml cold isolation medium, gently homogenized, and diluted with an additional 10 ml of isolation medium. The homogenate is centrifuged at 2,000 g for 3 min., and the resulting supernatant recentrifuged at 12,500 g for 8 min. The crude mitochondrial pellet is suspended in 0.12M mannitol-0.03M sucrose medium containing 3% Ficoll, gently layered onto 20 ml of 6% Ficoll (0.25M mannitol-0.06M sucrose), and centrifuged at 11,500 g for 30 min. The resulting mitochondrial pellet is resuspended in the isolation medium and recentrifuged for 10 min. at 12,500 g. The final pellet is brought to a concentration of 10 to 15 mg of mitochondrial protein per ml with isolation medium. Mitochondrial protein is determined by the Biuret reaction described by Gornall, A. G., et al. Biol Chem 177:751-766 (1949), using bovine serum albumin as a standard. Mitochondrial respiration is measured polarographically in a magnetically stirred chamber at 25° C., using a Clark microelectrode (Diamond Electro-tech, Ann Arbor, Mich.). The incubation medium contains the following (in mM): 5K+, 226 mannitol, 75 sucrose, 5 Tris-phosphate, 10 Tris-Cl, and 0.05 EDTA at pH 7.4. State 4 respiratory rates are determined using both NADH-linked (2.5 mM malate+ 2 mM glutamate) and FADH2 -lined (10 mM succinate) substrates, with 5 mM KCl at pH 7.0. State 3 respiration rates are measured after stimulation with 1.5 mM ADP. Respiratory control ratios are determined as the ratio of State 3 to State 4 respiration after incubation with 0, 50, 100 and 200 μM piroxicam.

[2] = test system: Xanthine dehydrogenase (XDH) and oxidase (XO); experiment: gastric xanthine dehydrogenase and oxidase activity; assay type: in vivo, rat; settings: whole stomach, piroxicam treated
Method: MEASUREMENT OF GASTRIC XANTHINE OXIDASE ACTIVITY. Xanthine dehydrogenase (XDH) and oxidase (XO) activities are measured in whole stomach from piroxicam-treated and vehicle-treated rats, using methods reported by Parks, et. al. […]. 254 (Gastrointest Liver Physiol 17): […]-[…] (1988). The artifactual conversion of XDH to XO is minimized by quickly removing stomachs from rats that were anesthetized with 50 mg/kg sodium pentobarbital and still breathing spontaneously. After gastrectomy, the rats are euthanized by cutting the abdominal aorta. Stomachs are quickly rinsed in an ice cold homogenizing buffer consisting of 50 mM potassium phosphate buffer, pH 7.0, containing 10 mM dithiothreitol (DTT), 1 mM phenylmethylsulfonyl fluoride (PMSF) and 0.1 mM EDTA. The stomach is then immediately immersed in liquid nitrogen and ground to a fine powder under liquid nitrogen using a mortar and pestle. About 0.5 g of frozen powder is added to 5 ml of homogenizing buffer and centrifuged 40,000 g for 30 min. The supernatant is decanted and microfuged for an additional 10 min. […] To increase reaction rates activity was measured at 30 rather than 25° C. […] XO is assayed in the absence in NAD+, while XDH+XO activity is measured in the presence of 500 μM NAD+. […] The extent of XDH conversion (% XO) is calculated from XO activity divided by XDH+XO activity.

[3] = test system: mitochondrial respiration; experiment: generation of O2- by mitochondrial respiration; assay type: biochemical, rat
gastric ulceration = experiment: NSAID-induced gastric ulceration in rats (surface area of ulceration); assay type: in vivo, rat (male Sprague-Dawley); settings: 4 h
Method: Male Sprague-Dawley rats (Charles River, Wilmington, Mass.) weighing 300-325 g were housed individually in wire bottomed cages to prevent ingestion of hair and feces. […] Piroxicam or aspirin and other NSAIDS were suspended in a vehicle of 1% carboxymethylcellulose, 0.1% Tween 80 and 0.15 M HCl, and administered in a volume of 1 ml on the morning of study by oral gavage using an 18 gauge curved blunt needle (Popper and Sons, New Hyde Park, N.Y.). One ml of vehicle alone was administered for control experiments. HCl was added to the vehicle to insure an acid environment in the stomach in all studies. […] Four hours after the administration of NSAID or vehicle, rats were euthanized with sodium pentobarbital (100 mg/kg IP), and the surface area of ulceration per stomach was quantitated using morphometric techniques. Stomachs were removed, the lumen was exposed by an incision along the radius of greater curvature, and the stomach was washed in phosphate buffered saline. The luminal surface was laid out on a flat surface with gross folds removed by gentle distension. The percentage of surface involved with submucosal hemorrhage was then determined by point counting, as described by Weibel, E. R. Stereological Methods: Practical Methods for Biological Morphometry. […] This was done by tabulation of the percentage of points over ulcerations using a point counting eyepiece graticle (16×16 points in a square format). At the 12X magnification used on the Wild dissecting microscope (Wild-Heerbrugg, Basel, Switzerland), the graticle covered a 1 cm^2 area of the surface. Four to five non-overlapping sampling sites were taken to fully cover the exposed surface. To determine the total luminal surface area, the outline of the outer boundary of the stomach was traced using a transparent acetate sheet, and the area was determined from planimetry. The surface area of ulcerated regions per stomach was then determined by multiplying the surface density of ulceration regions by the luminal surface area of the stomach.
Differences in total luminal surface area in cm^2, surface area of ulcerated regions per stomach and biochemical analyses between each treatment intervention and its corresponding untreated control group are compared using the Mann-Whitney U Test, Dixon, W. J., Massey, F. J., Jr. Introduction to statistical methods, 4th edition. […] In vitro studies are compared using the Student's unpaired T-test, Dixon, W. J., Massey, F. J., Jr. Introduction to statistical methods, 4th edition. […] Values are expressed as mean±SEM. Significance is assumed when P<0.05.
Phenyl N-tert-butyl nitrone is obtained from Aldrich Chemicals, Milwaukee, Wis. All other chemicals and pharmaceuticals are from Sigma Chemical.

[4] = rat liver mitochondria, 0-200 μM piroxicam

CN1C(C(=O)Nc2ccccn2)=C(O)c2ccccc2S1(=O)=O [piroxicam]
respiratory control ([1]; FADH2-linked and NADH-linked substrates): inhibition of respiratory control | rate of mitochondrial oxygen uptake in the absence of ADP (State 4) [1, 4]: increases the rate of mitochondrial oxygen uptake | stimulation of respiration by ADP (State 3) [1, 4]: lost in the presence of piroxicam | XO as % of total XDH+XO activity [2]: 45±3% | total XDH+XO activity ([2]; vehicle 31.6±2.45 mU/g): 30.5±1.6 mU/g | generation of O2- by mitochondrial respiration [3]: did not increase generation of O2 - | gastric ulceration, in words (gastric ulceration; oral gavage, 23 mg/kg piroxicam, vs vehicle, 23 mg/kg): prominent ulceration along the ridges of gastric rugae; also recorded: consistently produced ulceration; also recorded: profound gastric ulceration | mean ulceration in piroxicam-treated control stomachs (gastric ulceration; piroxicam 23 mg/kg p.o., absence of an intervention): 0.215 cm^2
